Assay results published in publication PMC6213900, “Design, Synthesis, and Cytotoxic Analysis of Novel Hederagenin–Pyrazine Derivatives Based on Partial Least Squares Discriminant Analysis” (International Journal of Molecular Sciences, 2018).

Columns and labels:
[1] = test system: MDCK (Madin–Darby canine kidney) cells; assay: MTT toxicity evaluation, MDCK; format: cell-based; conditions: Canis lupus familiaris, MDCK, 72 h treatment, non-tumor cells, read-out: Half Maximal Inhibitory Concentration (IC50) MDCK
In short: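 Cells seeded at 3 × 10^3/well in DMEM/10% FBS, then treated 72 h with 3.125–50 μM compound in DMSO. MTT (5 mg/mL) added for 4 h, formazan dissolved in DMSO, absorbance read at 490 nm; inhibition relative to untreated control, IC50 as 50% growth inhibition, triplicate runs.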

[2] = test system: HepG2, A549, MCF-7, H9c2, and MDCK cells; assay: MTT assay, panel of five cell lines (summary in discussion); format: cell-based; conditions: read-out: IC50 values ranging (cell lines not specified)
Procedure: A series of different esters of He were designed and synthesized. All these compounds were screened for cytotoxic activity employing a panel of five cell lines, including HepG2, A549, MCF-7, H9c2, and MDCK cells, using the MTT assay. […] Further intensive modifications at C-23 and studies are currently being performed in our research group, and the results will be reported in due course.
The antitumor activity of these compounds were evaluated on MCF-7, A549, HepG2, MDCK, and H9c2 cell lines using the MTT assay. Cells at a density of 3 × 10^3 cells/well were plated in a 96-multiwell plate in DMEM containing 10% FBS for 24 h at 37 °C with 5% CO2. Then, cells were treated for 72 h with the required concentrations (3.125, 6.25, 12.5, 25, or 50 μM) of the compounds and reference drugs (He and DDP) dissolved with the vehicle DMSO. After that, the culture substrate was replaced with 200 μL of DMEM containing 20 μL of MTT solution at 5 mg/mL and incubated for 4 h. The supernatant was removed and the dissolved formazans precipitated with 120 μL of DMSO. Wells without drugs were used as blanks. A plate reader was used to determine the absorbance at 490 nm. The above steps were repeated three times. The IC50 values were defined as the concentration of the compound which gave 50% growth inhibition, and they were calculated using Graph Pad Prism 5. […]

[3] = test system: A549 cells; assay: Annexin V-FITC/PI staining, flow cytometry; format: cell-based, human; conditions: 72 h
Procedure: To further depict the apoptosis induced by compound 9, apoptotic rates were analyzed by flow cytometry using Annexin V-FITC/PI staining.
According to instructions, A549 cells were stained with an annexin-V FITC apoptosis detection kit (Beijing BioDee Biotech. Co., Ltd., Beijing, China). A549 cells in the logarithmic growth phase were seeded in six-well plates (4.8 × 10^4 cells/well). After incubation for 24 h at 37 °C with 5% CO2, various concentrations (0, 2, 5, or 10 μM) of compound 9 were added to the cultures, and the plate was incubated for a further 72 h. A549 cells were collected, washed twice with cold PBS, and centrifuged at 2400 rpm for 10 min. The resulting pellet was mixed with 200 μL of binding buffer of the Annexin V-FITC kit; then, 5 μL of FITC-labeled annexin V was added and mixed gently. After incubation at 4 °C for 10 min in the dark, 5 μL of PI was added. Then, the cells were immediately analyzed with a flow cytometer at 488 nm.

[4] = test system: A549 cells; assay: Giemsa staining, morphological detection of apoptosis; format: cell-based, human; conditions: 72 h
Procedure: With an increase in dose, the phenomenon of cell shrinkage and cell disruption became more obvious.
A549 cells in the logarithmic growth phase were seeded in 12-well plates (1.2 × 10^4 cells/well). After incubation for 24 h at 37 °C with 5% CO2, various concentrations (0, 2, 4, or 6 μM) of compound 9 were added to the cultures, and the plate was incubated for further 72 h. Then, we discarded the cell culture fluid, washed twice with phosphate-buffered saline (PBS), and fixed the cells with cold methanol. The A549 cells were stained with 6% Giemsa solution for 5 min, washed with water, and dried. The cell morphological changes were observed under an inverted microscope.

SMILES: Cc1cncc(C(=O)OCCOC(=O)[C@]23CCC(C)(C)CC2C2=CCC4[C@@]5(C)CC[C@H](O)[C@@](C)(CO)C5CC[C@@]4(C)[C@]2(C)CC3)n1 (stereo partly drawn) [Compound 9, 2-(((4aS,6aS,6bR,9R,10S,12aR)-10-Hydroxy-9-(hydroxymethyl)-2,2,6a,6b,9,12a-hexamethyl-1,2,3,4,4a,5,6,6a,6b,7,8,8a,9,10,11,12,12a,12b,13,14b-icosahydropicene-4a-carbonyl)oxy)ethyl-6-methylpyrazine-2-carboxylate]
- IC50 [1]: 14.11 ± 0.04 µM
- IC50 [2]: 3.22 to 4.48 µM
- percentage of apoptotic cells (early and late apoptosis) ([3]; 2 μM): 17.4%
- percentage of apoptotic cells (early and late apoptosis) ([3]; 5 μM): 72.0%
- percentage of apoptotic cells (early and late apoptosis) ([3]; 10 μM): 91.5%
- cell morphology, Giemsa staining ([4]; 2 μM): the cells had a lot of puffing and fragmentation
- cell morphology, Giemsa staining ([4]; 6 μM): almost no normal cell morphology
